Test results as given in ChEMBL document CHEMBL2407004, “3-Acyl-5-hydroxybenzofuran derivatives as potential anti-estrogen breast cancer agents: a combined experimental and theoretical investigation” (Bioorg Med Chem Lett, 2013).

System: MCF7
Test: Antiproliferative activity against human MCF7 cells after 48 hrs by MTT assay
Assay type: functional, cell-based
Settings: MCF7, 48 h

SMILES: COc1cc2occ(C(=O)c3ccc(-c4ccccc4)cc3)c2cc1O
- IC50: 1660 µM

SMILES: O=C(/C=C/c1cccc(Cl)c1)c1coc2cc(F)c(O)cc12
- IC50: 644 µM

SMILES: COc1cc2occ(C(=O)/C=C/c3ccc4c(c3)OCO4)c2cc1O
- IC50: 2110 µM

SMILES: COc1cc2occ(C(=O)c3cccc(NC(C)=O)c3)c2cc1O
- IC50: 43.1 µM

SMILES: COc1ccc(/C=C/C(=O)c2coc3cc(F)c(O)cc23)cc1
- IC50: 814 µM

SMILES: COc1cc2occ(C(=O)/C=C/c3ccccc3)c2cc1O
- IC50: 167 µM

SMILES: CC/C(=C(\c1ccccc1)c1ccc(OCCN(C)C)cc1)c1ccccc1 [TAMOXIFEN]
- IC50: 12.3 µM

SMILES: COc1cc2occ(C(=O)/C=C/c3cccc(Cl)c3)c2cc1O
- IC50: 464 µM
